The record followed here is US12208130B2, “Treatment of women affected with polycystic ovary syndrome” (INSTITUT NATIONAL DE LA SANTE ET DE LA RECHERCHE MEDICALE …, priority 2017, dated 2025).

A short description of this data set: Cetrorelix measurement in maternal and fetal brain (nano-HPLC-HRMS). The class given is in vivo, mouse. The following applies: dams i.p. 0.5 mg/Kg E16.5-E18.5; brains at E19.5. How it is done:
Timed-pregnant adult (3-4 months) C57BL6/J (B6) (Charles River, USA) dams were injected daily intraperitoneally (i.p.) from embryonic day (E) 16.5 to 18.5 with 200 μL of a solution containing respectively: 1) 0.01M phosphate buffered saline (PBS, pH 7.4, prenatal control-treated), 2) PBS with 0.5 mg Kg^−1 of the GnRH antagonist, cetrorelix acetate (Sigma, Cat #C5249; GnRH antag-treated). At E19.5, dams were anesthetized with ketamine/xylazine, and sacrificed by cervical dislocation. Dams' brains and fetal brains were collected, snap-frozen in liquid nitrogen and stored at −80° C. until nano-HPLC-HRMS experiments.
Murine maternal and embryo brain samples were prepared adapting the procedure described (Wang et al., 2014, Vol. 1345: 98-106). Briefly, the brains were weighted, homogenized with 1% formic acid in cold acetonitrile and incubated for 15 minutes at −20° C. After centrifugation, the supernatant was freeze-dried and reconstituted with 3% acetic acid and 1% trifluoroacetic acid (TFA). all of the solvents were from Sigma-Aldrich Merck (Milan, Italy). […]
The column was equipped with a nanoESl source and the capillary voltage was 2000 V in positive ion mode. […] High resolution spectra were acquired with a resolution of 60000 (FWHM) and the mass accuracy of recorded ions (vs. calculated) was ±5 ppm units (without internal calibration).

Where a SMILES comes first, the peptide text is derived from it. [ ]: non-standard residue; d: D form. dPhe(4-Cl) = N[C@H](Cc1ccc(Cl)cc1)C(=O)O; d2Nal = N[C@H](Cc1ccc2ccccc2c1)C(=O)O; dCit = NC(=O)NCCC[C@@H](N)C(=O)O; d3Pal = N[C@H](Cc1cccnc1)C(=O)O

On to `CC(=O)N[C@H](Cc1ccc2ccccc2c1)C(=O)N[C@H](Cc1ccc(Cl)cc1)C(=O)N[C@H](Cc1cccnc1)C(=O)N[C@@H](CO)C(=O)N[C@@H](Cc1ccc(O)cc1)C(=O)N[C@H](CCCNC(N)=O)C(=O)N[C@@H](CC(C)C)C(=O)N[C@@H](CCCNC(=N)N)C(=O)N1CCC[C@H]1C(=O)N[C@H](C)C(N)=O` [Cetrorelix acetate, Ac-D-2Nal-D-Phe(4-Cl)-D-3Pal-Ser-Tyr-D-Cit-Leu-Arg-Pro-D-Ala-NH2] (Ac-[d2Nal][dPhe(4-Cl)][d3Pal]SY[dCit]LRP[dA]-NH2), for which the “access to maternal and fetal brain” value is given as “can access the maternal as well as the fetal brain”.
